Measurements published in patent publication US7968558B2, “Amidine derivatives of 2-heteroaryl-quinazolines and quinolines; potent analgesics and anti-inflammatory agents” (Rottapharm S.p.A., priority 2006, dated 2011).
Structures can show the parent of a compound that is named as a salt. Where two headings read alike, the source gives them in different places.

Tests used:
[1] = tested on: mechanical hyperalgesia associated with STZ-induced diabetes; experiment: STZ-induced diabetes mechanical hyperalgesia (neuropathic pain); format: in vivo, rat
Method: Streptozotocin (STZ)-induced diabetes in the rat has been increasingly used as a model of painful diabetic neuropathy to assess the efficacies of potential analgesic agents (C. Courteix, Pain 1993, 53, 81-8). The compounds of the invention were tested for efficacy in reducing mechanical hyperalgesia associated with STZ-induced diabetes in the rat, according to the experimental model as described by the literature. Diabetes was produced with the injection of a single dose (75 mg/Kg i.p.) of STZ. In the following four weeks after the induction of diabetes the clinical symptoms (weight, body and skin temperature, motility and hyperglycemia) progressively developed by the animals, are strictly monitored. After four weeks, the scores obtained in diabetic rats to various pain stimuli (in particular mechanical stimuli) were grater than those in normal rats, indicating hyperalgesia. The hyperalgesia induced by diabetes was evaluated using the Randall-Selitto method as above described, and quantitated using the analgesimeter. Also in this case, the difference in the mechanical pain threshold between the basal value (generally 230-250 g) and the one tolerated by the animals treated with the drug, is defined as mechanical hyperalgesia. The compounds of the invention were administered i.p. (solution, Tween 80, 10% in saline) at different doses, and mechanical hyperalgesia was measured at the reported time, as maximum percent effect (MPE) which represents the difference (%) in pain threshold between the animals treated with the drug and the controls that received only the vehicle, compared with the weight borne by naïf non-diabetic controls. A 100% protection means that the diabetic animals treated with the compound can tolerate the same stimulus (weight) as the naïf non-diabetic animals. MPE higher than 100% means that the diabetic animal treated with the compound can tolerate stimuli (weight) higher than the control non-diabetic animals (hypoalgesia).

[2] = tested on: Zymosan-induced mechanical hyperalgesia; experiment: Zymosan-induced mechanical hyperalgesia (Randall-Selitto); format: in vivo, rat; conditions: for ED50: Rattus norvegicus, read-out: Analgesia ED50; for Analgesia ED100: calculated from linear dose-response
Method: (§1) The interplantar injection of Zymosan-induced mechanical hyperalgesia was used as a model of inflammatory pain (Meller, Neuropharmacology, 1994, 33, 1471-1478). In this model, typically a male Sprague-Dawley or Wistar rat (200-250 g) receives an interplantar injection of 3 mg/100 μl zymosan into one hind paw. A marked inflammation occurs in this hind paw. Drugs are administered orally for evaluation of efficacy, 30 min. before the inflammatory insult. The hyperalgesia induced by zymosan administration was evaluated using the Randall-Selitto method (Arch. Int. Pharmacodyn., 1957, 111, 409). The quantitation of the analgesic effect is achieved by an analgesimeter, which consist in applying to the inflamed paw an increasing weight (from 130-140 g up to 500 g). The difference in the mechanical pain threshold between the basal value (generally 230-250 g) and the one tolerated by the animals treated with the drug, determined 4 hours after the inflammatory challenge, is defined as mechanical hyperalgesia.
(§2) Mechanical hyperalgesia is expressed for the compounds of the invention as ED50, which is the dose of the administered compound able to increase the pain threshold by 50% in comparison with the group of control animals. The corresponding ED100, representing the dose able of reducing of 100% the pain threshold, can be calculated for those cases where there is a linear dose-response relationship. In vivo anti-inflammatory effect exerted by the compound of the invention can be assessed in the same Zymosan induced inflammation test described above, by measuring the volume of the oedema induced by the inflammatory agent. The oedema was evaluated as the increase in the volume of the Zymosan injected paw within a time of 0-2 hrs. The measurements of the variation of the oedema volume of the paw were recorded using hydroplethysmometer, which consists of two plastic cuvettes containing a surfactant liquid, the larger one being used for immersion of the paw, connected to the smaller one which contains a trans-ducer capable of recording small displacements of the volume used for the measure. The paw is immersed in the cuvettes up to the tibiotarsal joint. The volume of the liquid displaced is proportional to the extent of the inflammation. The efficacy of the compounds of the invention in preventing oedema formation is expressed as ED30, and is measured 2 hours after the inflammatory challenge, and represents the dose able of reducing of 30%, the Zymosan induced paw volume increase in comparison to control animals (animals treated with Zymosan but treated with only distilled water instead of the testing compound). The corresponding ED50, representing the dose able of reducing of 50% the zymosan induced paw volume increase, can be calculated for those cases where there is a linear dose-response relationship.
(§3) In both the experiments, for each test compound, at least three doses were used, with 10 animals per group. Compounds of the invention were tested at 10, 20 and 40 mg/Kg.

[3] = tested on: Zymosan induced paw volume increase; experiment: Zymosan-induced paw oedema; format: in vivo, rat; conditions: for ED50: Rattus norvegicus, read-out: Oedema Reduction ED50; for Oedema Reduction ED30: 2 hours after challenge
Method: as §1, §2, §3

[4] = tested on: acetic acid-induced abdominal writhes; experiment: Acetic acid-induced writhing test; format: in vivo, mice
Method: With the aim of assessing whether the compounds of the invention are able to inhibit responses to peritoneal irritation-induced visceral pain, the acetic acid-induced writhing assay was used in mice to determine the degree of anti-nociception.
The writhing test is a model of inflammatory pain that has long been used as a screening tool for evaluation of analgesic and anti-inflammatory agents (HDJ Collier, B. J. Pharmacol Chemother., 1968, 32, 295-310). The test was performed inducing nociception by an i.p. injection of acetic acid 1%, 0.1 mL/10 g of body weight. Mice were pre-treated (subcutaneously, s.c., three different doses: 3, 10, 30 mg/Kg) with the tested compounds 30 min. before acetic acid injection, while control animals received a similar volume of saline solution. A group of mice was treated with Paracetamol (200 mg/Kg, s.c.) as reference drug. The number of abdominal writhes (full extension of both hind paws) was cumulatively counted every 5 minutes over a period of 20 min. immediately after the acetic acid injection. The anti-nociceptive activity was expressed as inhibition of abdominal writhes as maximum percent effect (MPE), which represents the difference (%) in pain threshold between the animals treated with the drug and the ones that received only the vehicle.

CFA-induced hyperalgesia = experiment: CFA model of chronic inflammatory pain; format: in vivo, rat
[5] = tested on: formalin-induced paw licking; experiment: Formalin (licking) test; format: in vivo, mice; conditions: for ED50: Mus musculus, ip
Method: The formalin test is increasingly used as a model of injury-produced pain (FV. Abbott, Pain, 1995, 60, 91-102). The procedure used for the evaluation of the compounds of the invention was similar to that reported by literature (S. Hunskaar, Pain, 1987, 30, 103-104), and consisted of the injection of 20 μl of 1% solution of formalin dissolved in distilled water, in the plantar surface of the right hind paw of the mice. Immediately, the animals were placed individually in an observation chamber. The amount of time that the animal spent licking the injected paw, considered indicative of pain, was recorded during 30 min. following formalin injection. The initial nociceptive scores normally peaked 5 min after formalin injection (early phase) and 15-30 min. after formalin injection (late phase), representing both the neurogenic and inflammatory pain responses respectively.
Animals were treated i.p. with an aqueous solution of the tested compound (doses: 3, 10, 30 mg/Kg), 1 hour before the formalin injection. Control animals received only the vehicle.
In Table 8, the analgesic effect elicited in this test by a representative compound of Formula (I), is expressed as ED50 both for the early and late phase, and compared with the performance of the standard reference, paracetamol.

[6] = oral, 30 min before zymosan, 4 hours after challenge
[7] = oral, calculated from linear dose-response

## CN(C)CCC=C1c2ccccc2CCc2ccccc21 [Amitriptyline, reference compound]
[1]; 1 mg/Kg i.p.
  MPE 0.5 hrs.: 72%
  MPE 1.5 hrs.: 89%
[1]; 3 mg/Kg i.p.
  MPE 0.5 hrs.: 44%
  MPE 1.5 hrs.: 40%
  MPE 3 hrs.: 5%
[1]; 10 mg/Kg i.p.
  MPE 0.5 hrs.: 68%
  MPE 1.5 hrs.: 77%
[1]; 30 mg/Kg i.p.
  MPE 0.5 hrs.: 65%
  MPE 1.5 hrs.: 69%
  MPE 3 hrs.: 23%

## Cc1ccc(-c2cc(C(F)(F)F)nn2-c2ccc(S(N)(=O)=O)cc2)cc1 [Celecoxib, reference compound]
[2]; [6]
  ED50: 9 mg/kg
[2]; oral
  Analgesia ED100: 1172 mg/kg
[3]; [7]
  ED50: 644 mg/kg
[3]; oral
  Oedema Reduction ED30: 13.8 mg/kg

## CC(=N)Nc1ccc2nc(-c3ccc4c(c3)CCO4)ncc2c1 [Example 4, N-[2-(2,3-dihydro-benzofuran-5-yl)quinazolin-6-yl]acetamidine dihydrochloride hemihydrate]
[1]; 3 mg/Kg i.p.
  MPE 0.5 hrs.: 56%
  MPE 1.5 hrs.: 15%
[1]; 10 mg/Kg i.p.
  MPE 0.5 hrs.: 78%
  MPE 1.5 hrs.: 24%
[1]; 30 mg/Kg i.p.
  MPE 0.5 hrs.: 163%
  MPE 1.5 hrs.: 74%
[2]
  ED50: 5.8 mg/kg
[2]; oral
  Analgesia ED100: 17 mg/kg
[3]; po
  ED50: 170 mg/kg
[3]; oral
  Oedema Reduction ED30: 25 mg/kg
[4]; 3 mg/Kg s.c., 30 min. before acetic acid
  MPE (%): 18%
[4]; 10 mg/Kg s.c., 30 min. before acetic acid
  MPE (%): 41%
[4]; 30 mg/Kg s.c., 30 min. before acetic acid
  MPE (%): 36%
[4]; Mus musculus, sc
  ED50: 59.6 mg/kg
CFA-induced hyperalgesia; 3 mg/Kg i.p.
  MPE 1.5 hrs.: 44%
CFA-induced hyperalgesia; 10 mg/Kg i.p.
  MPE 0.5 hrs.: 47%
  MPE 1.5 hrs.: 27%
  MPE 3 hrs.: 25%
  MPE 6 hrs.: 66%
  MPE 24 hrs.: 57%
CFA-induced hyperalgesia; 30 mg/Kg i.p.
  MPE 0.5 hrs.: 243%
  MPE 1.5 hrs.: 270%
  MPE 3 hrs.: 170%
  MPE 6 hrs.: 103%
  MPE 24 hrs.: 76%

## COc1ccc2c(c1)c(CC(=O)O)c(C)n2C(=O)c1ccc(Cl)cc1 [Indomethacine]
[5]; i.p., 1 hour before formalin, late phase
  Analgesic effect ED50 (mg/Kg) Late phase: 10 mg/kg

## CN1CC[C@]23c4c5ccc(O)c4O[C@H]2[C@@H](O)C=C[C@H]3[C@H]1C5 [Morphine]
[5]; read-out: Analgesic effect ED50 (mg/Kg) Early phase
  ED50: 4 mg/kg
[5]; read-out: Analgesic effect ED50 (mg/Kg) Late phase
  ED50: 4 mg/kg

## CS(=O)(=O)Nc1ccc([N+](=O)[O-])cc1Oc1ccccc1 [Nimesulide, reference compound]
[2]; [6]
  ED50: 7.4 mg/kg
[2]; oral
  Analgesia ED100: 161 mg/kg
[3]; [7]
  ED50: 33.4 mg/kg
[3]; oral
  Oedema Reduction ED30: 0.5 mg/kg

## CC(=O)Nc1ccc(O)cc1 [Paracetamol]
[5]; 1 hour before formalin, early phase, read-out: Analgesic effect ED50 (mg/Kg) Early phase
  ED50: 230 mg/kg
[5]; 1 hour before formalin, late phase, read-out: Analgesic effect ED50 (mg/Kg) Late phase
  ED50: 107 mg/kg
[4]; 200 mg/Kg s.c.
  MPE (%): 61%

## CN1C(C(=O)Nc2ccccn2)=C(O)c2ccccc2S1(=O)=O [Piroxicam, reference compound]
CFA-induced hyperalgesia; 30 mg/Kg i.p.
  MPE 0.5 hrs.: 102%
  MPE 1.5 hrs.: 111%
  MPE 3 hrs.: 54%
  MPE 6 hrs.: 24%
  MPE 24 hrs.: 38%

## COc1cccc(C2(O)CCCCC2CN(C)C)c1 (centres unmarked) [Tramadol, reference compound]
[1]; 3 mg/Kg i.p.
  MPE 0.5 hrs.: 26%
  MPE 1.5 hrs.: 53%
  MPE 3 hrs.: 7%
[1]; 10 mg/Kg i.p.
  MPE 0.5 hrs.: 58%
  MPE 1.5 hrs.: 48%
  MPE 3 hrs.: 27%
[1]; 30 mg/Kg i.p.
  MPE 0.5 hrs.: 54%
  MPE 1.5 hrs.: 64%
  MPE 3 hrs.: 23%
[1]; 50 mg/Kg i.p.
  MPE 0.5 hrs.: 81%
  MPE 1.5 hrs.: 60%
  MPE 3 hrs.: 43%
[2]
  ED50: 25.7 mg/kg
[2]; oral
  Analgesia ED100: 405 mg/kg
